Laboratory results published in ChEMBL document CHEMBL3046732, “Synthesis and biological evaluation of new [1,3,4]thiadiazepino[7,6-b]quinolin-2-amines as potent anti-microbial agents” (2013).

Assays:
Aspergillus niger = test: Antimicrobial activity against Aspergillus niger assessed as growth inhibition by microdilution method; type: functional
Staphylococcus aureus = test: Antimicrobial activity against Staphylococcus aureus assessed as growth inhibition by microdilution method
Trichoderma reesei = test: Antimicrobial activity against Trichoderma reesei assessed as growth inhibition by microdilution method; type: functional
Salmonella typhimurium = test: Antimicrobial activity against Salmonella enterica subsp. enterica serovar Typhimurium assessed as growth inhibition by microdilution method
Streptococcus pyogenes = test: Antimicrobial activity against Streptococcus pyogenes assessed as growth inhibition by microdilution method
Klebsiella aerogenes = test: Antimicrobial activity against Enterobacter aerogenes assessed as growth inhibition by microdilution method
Alternaria alternata = test: Antimicrobial activity against Alternaria alternata assessed as growth inhibition by microdilution method; type: functional
Bacillus subtilis = test: Antimicrobial activity against Bacillus subtilis assessed as growth inhibition by microdilution method
Curvularia australiensis = test: Antimicrobial activity against Curvularia australiensis assessed as growth inhibition by microdilution method; type: functional
Aspergillus flavus = test: Antimicrobial activity against Aspergillus flavus assessed as growth inhibition by microdilution method; type: functional
Escherichia coli = test: Antimicrobial activity against Escherichia coli assessed as growth inhibition by microdilution method

Row | SMILES | MIC (Aspergillus niger) [µg/mL] | MIC (Staphylococcus aureus) [µg/mL] | MIC (Trichoderma reesei) [µg/mL] | MIC (Salmonella typhimurium) [µg/mL] | MIC (Streptococcus pyogenes) [µg/mL] | MIC (Klebsiella aerogenes) [µg/mL] | MIC (Alternaria alternata) [µg/mL] | MIC (Bacillus subtilis) [µg/mL] | MIC (Curvularia australiensis) [µg/mL] | MIC (Aspergillus flavus) [µg/mL] | MIC (Escherichia coli) [µg/mL]
1 | Cc1ccc(NC2=NN=Cc3cc4cc(C)ccc4nc3S2)cc1 | 1000 | > 1000 | 500 | 60 | 1000 | 60 | 500 | 1000 | 1000 | 1000 | 1000
2 | Cc1ccc2nc3c(cc2c1)C=NN=C(Nc1cccc(F)c1)S3 | 1000 | > 1000 | 1000 | > 1000 | > 1000 | > 1000 | 500 | > 1000 | > 1000 | 1000 | > 1000
3 | Cc1c(Cl)ccc2cc3c(nc12)SC(NCc1ccccc1)=NN=C3 | 500 | 1000 | 500 | 60 | 1000 | 500 | 500 | 60 | 500 | 500 | 1000
4 | Cc1cccc2cc3c(nc12)SC(NCc1ccccc1)=NN=C3 | 500 | > 1000 | 1000 | > 1000 | > 1000 | 1000 | 1000 | > 1000 | 1000 | 1000 | > 1000
5 | Cc1cccc2cc3c(nc12)SC(NCCN1CCOCC1)=NN=C3 | 500 | 1000 | 250 | 1000 | 1000 | 1000 | 500 | 1000 | 500 | 250 | 1000
6 | Cc1ccc2nc3c(cc2c1)C=NN=C(Nc1c(C)cccc1C)S3 | 1000 | 1000 | 250 | 1000 | 1000 | 1000 | 500 | 1000 | 1000 | 1000 | 1000
7 | COc1ccc2nc3c(cc2c1)C=NN=C(Nc1ccccc1Cl)S3 | 500 | 1000 | 500 | 60 | 30 | 125 | 500 | 30 | 500 | 500 | 500
8 | Cc1cccc(C)c1NC1=NN=Cc2cc3cccc(C)c3nc2S1 | 1000 | 1000 | 250 | 1000 | 1000 | 1000 | 500 | 1000 | 1000 | 500 | 1000
9 | COc1ccc2nc3c(cc2c1)C=NN=C(NCCN1CCOCC1)S3 | 1000 | 500 | 1000 | 500 | 500 | 1000 | 1000 | 500 | 1000 | 500 | 500
10 | COc1ccc2nc3c(cc2c1)C=NN=C(Nc1ccc(F)cc1)S3 | 1000 | 500 | 500 | 250 | 500 | 60 | 60 | 500 | 1000 | > 1000 | 500
11 | Cc1ccc(NC2=NN=Cc3cc4cccc(C)c4nc3S2)c(C)c1 | 1000 | 1000 | 250 | 1000 | 1000 | 1000 | 500 | 1000 | 500 | 500 | 1000
12 | Cc1ccc2nc3c(cc2c1)C=NN=C(Nc1ccccc1)S3 | 1000 | 1000 | 500 | 500 | 500 | 500 | 1000 | 1000 | > 1000 | 500 | > 1000
13 | Cc1cccc(C)c1NC1=NN=Cc2cc3ccc(Cl)c(C)c3nc2S1 | 500 | 500 | 250 | 1000 | 60 | 500 | 125 | 60 | 500 | 500 | 125
14 | Cc1cccc2cc3c(nc12)SC(Nc1ccccc1F)=NN=C3 | > 1000 | 1000 | 1000 | 250 | 1000 | 500 | 1000 | 500 | 1000 | 1000 | 500
15 | O=C(N[C@H](CO)[C@H](O)c1ccc([N+](=O)[O-])cc1)C(Cl)Cl [CHLORAMPHENICOL] |  | 1000 |  | 1000 | 1000 | 1000 |  | 1000 |  |  | 1000
16 | Cc1ccccc1NC1=NN=Cc2cc3cccc(C)c3nc2S1 | 500 | 1000 | 125 | 1000 | 1000 | 1000 | 1000 | 1000 | 500 | 125 | 1000
17 | Cc1ccc(NC2=NN=Cc3cc4cc(C)ccc4nc3S2)c(C)c1 | 1000 | 500 | 125 | 500 | 500 | 500 | 500 | 500 | 500 | 500 | 500
18 | Cc1cccc2cc3c(nc12)SC(Nc1cccc(Cl)c1)=NN=C3 | 500 | 1000 | 1000 | 1000 | 1000 | 1000 | 500 | 1000 | 1000 | 1000 | 1000
19 | Cc1ccccc1NC1=NN=Cc2cc3ccc(Cl)c(C)c3nc2S1 | 500 | 500 | 60 | 500 | 250 | 250 | 250 | 60 | 500 | 1000 | 250

Other lines, results leading:

Row | MIC (Aspergillus niger) [µg/mL] | MIC (Staphylococcus aureus) [µg/mL] | MIC (Trichoderma reesei) [µg/mL] | MIC (Salmonella typhimurium) [µg/mL] | MIC (Streptococcus pyogenes) [µg/mL] | MIC (Klebsiella aerogenes) [µg/mL] | MIC (Alternaria alternata) [µg/mL] | MIC (Bacillus subtilis) [µg/mL] | MIC (Curvularia australiensis) [µg/mL] | MIC (Aspergillus flavus) [µg/mL] | MIC (Escherichia coli) [µg/mL] | SMILES
20 | 500 | 500 | 60 | 500 | 500 | 500 | 60 | 500 | 250 | 500 | 500 | Cc1c(Cl)ccc2cc3c(nc12)SC(Nc1ccccc1Cl)=NN=C3
21 | 500 | 500 | 1000 | 60 | 60 | 125 | 500 | 500 | 500 | 500 | 500 | COc1ccc2nc3c(cc2c1)C=NN=C(Nc1ccccc1)S3
22 | 1000 | 500 | 1000 | 1000 | 500 | 500 | 500 | 60 | 500 | 500 | 500 | COc1ccc2nc3c(cc2c1)C=NN=C(Nc1cccc(F)c1)S3
23 | 500 | 500 | 250 | > 1000 | 500 | > 1000 | 125 | 1000 | 500 | 500 | 1000 | COc1ccc2nc3c(cc2c1)C=NN=C(Nc1ccccc1F)S3
24 | 500 | 500 | 500 | 1000 | 500 | 1000 | 500 | 250 | 500 | 1000 | 500 | CCc1ccc(NC2=NN=Cc3cc4cccc(C)c4nc3S2)cc1
25 | > 1000 | 500 | 1000 | 1000 | 1000 | 60 | 1000 | 1000 | > 1000 | > 1000 | 1000 | Cc1ccc2nc3c(cc2c1)C=NN=C(Nc1ccccc1F)S3
26 | 500 | 500 | 250 | 1000 | 500 | 500 | 30 | 60 | 500 | 500 | 250 | COc1ccc2nc3c(cc2c1)C=NN=C(Nc1ccc(Cl)cc1)S3
27 | 500 | 500 | 500 | 500 | 30 | 250 | 60 | 60 | 500 | 500 | 30 | COc1ccc2nc3c(cc2c1)C=NN=C(Nc1cccc(Cl)c1)S3
28 | 1000 | 500 | 250 | 500 | 250 | 500 | 500 | 125 | 1000 | 1000 | 250 | Cc1ccc(NC2=NN=Cc3cc4ccc(Cl)c(C)c4nc3S2)cc1
29 | 1000 | 250 | 500 | 500 | 250 | 500 | 500 | 500 | 1000 | 1000 | 250 | Cc1cccc2cc3c(nc12)SC(Nc1ccc(F)cc1)=NN=C3
